From patent US20140100183A1, “CENTRAL ADMINISTRATION OF STABLE FORMULATIONS OF THERAPEUTIC AGENTS FOR CNS CONDITIONS” (The Regents of the University of Colorado, a body corporate, priority 2006, published 2014)
Structures can show the parent of a compound that is named as a salt. Where two headings read alike, the source gives them in different places. Marks after values point to notes of the source that are not given here.

Assays:
[1] = system: anxiety in rats (elevated plus maze, open field); test: Elevated plus maze and open field conflicts test after ICV antidepressants; assay type: in vivo, rat; settings: for Rodent ICV dose: anxiety reduction; for % of Oral dose: rodent ICV dose vs human oral equivalent
Method: Various antidepressants were injected via ICV, and animals monitored in standard elevated plus maze and open field conflicts test.
Rats are placed in the center of a pluz-shaped maze. The arms are 13 cm wide; two arms were open and two are enclosed by 32 cm high walls. The maze is elevated off the flor by 51 cm. The percent of time and distance traveled in each type of arm over the 4 minute test period is calculated by computer. Increased time and distance traveled in the open arms is thought to reflect anxiolytic activity.
Rats are place against 1 side of a 104 cm square box with 32 cm sides. The activity of the rat is monitored by computer over a 4 minute testing period. A computer divides the openfied space into 25 equal squares arranged into an outer:ring” of 16 squares, a middle region of 8 squares and a central square. The percent of time and distarnce traveled in the center square by rats receiving the drug are calculated and compared to rats receiving a saline control. Increased time and distance traveled in the center square is thought to reflect anxiolytic activity.

[2] = system: human; settings: effective daily dose, oral; cited from earlier work
[3] = cited from earlier work; for Comments: solubility: qualitative, solvents as given in the source
[4] = system: patients diagnosed with psychotic disorders; test: ICV or cisterna magna treatment of psychotic disorders (Example 5); settings: central administration, 0.01 to 0.1 mg per hour, 1 week
Method: A 5 mg/ml solution of the active agent is solubilized in aqueous solution using beta-hydroxypropyl cyclodextrin, made isotonic with NaCl, and the pH is maintained at 7.4 with 10 mM sodium phosphate. […] The stabilized solution is inserted into a fluid reservoir attached to a Medtronic Synchromed-II intrathecal delivery system. The stabilized formulation is intracerebroventricularly or cistema magna injected into patients diagnosed with psychotic disorders.
Injection is continuous, using a computerized pump to provide a delivery rate of 0.01 to 0.1 mg of the active agent per hour, depending on the severity of symptoms.

[5] = system: patients diagnosed with epilepsy disorders; test: ICV or cisterna magna treatment of epilepsy (Example 6); assay type: in vivo, human; settings: central administration, 0.01 to 0.1 mg per hour, 1 week
Text: After 1 week of treatment, epileptic frequency is reduced.

[6] = system: pentylenetetrazole (PTZ) seizure induction in rats; test: Pentylenetetrazole (PTZ) seizure induction model, ICV administration; assay type: in vivo, rat; settings: for % Change: drug group vs vehicle group (-V); for Rodent ICV dose: effective daily dose, blocking seizures; for Efficacy: effective in blocking seizures; for % of Oral dose: rodent ICV dose vs human oral equivalent
Method: Rats are anesthetized, placed in a stereotaxic instrument and a burr hole opened over one anterior lateral ventricle. A cannula is lowered to the ventricle and 5 μl of solution containing the drug is injected into the ventricle over 10 minutes. The incision is then closed and the animal allowed to regain consciousness and remain conscious for 10 minutes. After 10 minutes has elapsed, pentylenetetrazole (PTZ, 10 mg/ml in saline) is injected through a tail-vein catheter at a constant rate of infusion (1 ml/min, Razel syringe pump) until a motor seizure is induced. PTZ seizures are identified as myoclonic jerking followed by clonus and tonus. The time from the initial application of PTZ to the first clonic seizure (i.e., forelimb clonus) is measured and defined as “latency to seiqure onset”. The total amount of PTZ infused is calculated and then divided by each rat;s body weight to obtain the dose (mg/kg) of PTZ. The dose required to attain status epilepticus is compared to the PTZ dose without antiseizure medication.

[7] = system: sensory inhibition deficits in DBA/2 mice; test: Sensory inhibition (paired auditory stimuli, TC ratio) after acute ICV administration; assay type: in vivo, mouse; settings: 5 μg dose ICV
Method: The following methods were used to record the sensory inhibition.
The deficit in sensory inhibition can be quantified using the paired stimulus paradigm in which 2 identical stimuli are delivered 0.5 seconds apart and the electrophysiological response to each is recorded. In normal individuals, the response to the second, or test, stimulus, occurring 50 msec after stimulus onset, is reduced compared to the response to the first, or conditioning stimulus. However, schizophrenia patients have similar magnitude responses to both stimuli: The “TC ratio” is calculated by dividing the test amplitude by the conditioning amplitude. […] In normal individuals, the TC ratio is generally less than 0.4 while schizophrenia patients commonly have TC ratios above 0.5 and often approaching or exceeding 1.0.
In the present study, briefly, 5 baseline records were obtained in response to the paired auditory stimuli, prior to drug administration. […] Recordings were obtained at 5 minute intervals for 90 minutes post injection. Data analyzed included the amplitude of the response to the first stimulus (conditioning amplitude), amplitude of the response to the second stimulus (test amplitude) and the TC ratio (test amplitude/conditioning amplitude). This final parameter gives a measure of the level of inhibition in the circuit initiated by the conditioning stimulus. […] DBA/2 mice routinely have TC ratios of ≧0.8.

[8] = system: primary mouse cortical neuron cultures; test: Toxicity in primary mouse cortical neuron cultures (MTT); settings: 24 hours, 0.002% to 0.1% in culture media
Method: In addition, a preliminary assessment of the toxicity of cyclodextrin in primary mouse cortical neuron cultures was performed. […] After dissection, and cellular dissociation, the cells were washed with Dulbecco's Modified Eagle's Medium with 10% fetal bovine serum. Following recentrifugation, the cells resuspended in plating medium, counted with trypan blue and plated at a constant density of 6.5×10^4 cells per well in a 96-well pre-coated plate. […] The cultures were maintained at 37° C. in a humidified atmosphere of 5% CO2. […] The cultures were incubated and cell toxicity assayed at 24, 48 and 72 hours. Viability was assessed by the MTT (3-(4,5 diethylthiazol-2-yl)-2,5)diphenyltetrazolium bromide) assay, CellTiter 96 Non-radioactive cell Proliferation Assay (Promega, Madison Wis.) and by visual examination.

## CNCCC(Oc1ccc(C(F)(F)F)cc1)c1ccccc1 (racemic) [Fluoxetine, (+/−)-N-Methyl-3-phenyl-3-(alpha,alpha,alpha-trifluoro-p-tolyloxy)propylamine hydrochloride]
[1]; estimated effective dose
  Rodent ICV dose: 0.74** mg/kg
[1]
  % of Oral dose: 224%
[2]
  Human oral equivalent: 0.33 mg/kg

## Cc1nnc2n1-c1ccc(Cl)cc1C(c1ccccc1)=NC2 [ALPRAZOLAM, 8-Chloro-1-methyl-6-phenyl-4H-s-triazolo(4,3-a) (1,4) benzodiazepine]
[3]
  Comments: solubility: very slightly soluble in water

## Clc1ccc2c(c1)C(N1CCNCC1)=Nc1ccccc1O2 [AMOXAPINE, 2-Chloro-11-(1-piperazinyl)dibenz(b,f)(1,4) oxazepine]
[3]
  Comments: solubility: Soluble 1 in 460 of water, 1 in 15 of boiling water, 1 in 3 of alcohol, 1 in 45 of chloroform, 1 in 3 of ether, and 1 in 135 of benzene.

## CCN(CC)C(=S)SSC(=S)N(CC)CC [ANTABUSE, bis (diethylthiocarbamoyl) disulfide]
[3]; at 22 C.
  Solubility in water: Soluble in water <0.1 g/100 mL at 22 C.

## O=C1CCc2ccc(OCCCCN3CCN(c4cccc(Cl)c4Cl)CC3)cc2N1 [Aripiprazole]
[4]
  alleviation of psychotic symptoms: efficacious therapeutic alleviation of psychotic symptoms

## CC(NC(C)(C)C)C(=O)c1cccc(Cl)c1.Cl (stereo not drawn) [BUPROPION, 1-(3-chlorophenyl)-2-[(1,1-dimethylethyl)amino]-1-propanone hydrochloride]
[3]
  Comments: solubility: freely soluble in water and soluble in alcohol and in chloroform.

## CCCCNc1cc(C(=O)O)cc(S(N)(=O)=O)c1Oc1ccccc1 [Bumex]
[5]
  alleviation of seizures: efficacious therapeutic alleviation of seizures
[6]
  % Change: 90%
  Rodent ICV dose: 0.000364 mg/kg
  Efficacy: effective in blocking
  % of Oral dose: 1.1%
[2]
  Human oral equivalent: 0.033 mg/kg

## CN(C)CCCN1c2ccccc2CCc2ccc(Cl)cc21 [Clomipramine, 3-(3-Chloro-10,11-dihydro-5H-dibenz[b,f]azepin-5-yl)propyldimethylamine hydrochloride]
[1]; effective daily dose
  Rodent ICV dose: 0.37 mg/kg
[1]
  % of Oral dose: 8.8%
[2]
  Human oral equivalent: 4.16 mg/kg

## CCN(CC)CCN1C(=O)CN=C(c2ccccc2F)c2cc(Cl)ccc21 [FLURAZEPAM, 7-chloro-1-[2-(diethylamino)ethyl]-5-(o-fluorophenyl)-1,3-dihydro-2H-1,4-benzodiazepin-2-one dihydrochloride]
[3]
  Comments: solubility: Soluble in water, in alcohol, and in 0.1N hydrochloric acid.

## O=C1Cc2cc(CCN3CCN(c4nsc5ccccc45)CC3)c(Cl)cc2N1 [Geodon]
[4]
  alleviation of psychotic symptoms: efficacious therapeutic alleviation of psychotic symptoms

## O=C(CCCN1CCC(O)(c2ccc(Cl)cc2)CC1)c1ccc(F)cc1 [HALOPERIDOL, 4-[4-(p-chlorophenyl)-4-hydroxypiperidino]-4′-fluorobutyrophenone]
[3]
  Comments: solubility: sparingly soluble in water and soluble in ethanol

## OCCOCCN1CCN(C(c2ccccc2)c2ccc(Cl)cc2)CC1 (stereo not drawn) [HYDROXYZINE, 2-[2-[4-(p-chlorobenzhydryl)-1-piperazinyl]ethoxy]ethanol dihydrochloride.]
[3]
  Comments: solubility: slightly soluble in water and isopropyl alcohol, sparingly soluble in ethanol

## CN(C)CCCN1c2ccccc2CCc2ccccc21 [IMIPRAMINE, 10,11-dihydro-N,N-dimethyl-5H-Dibenz[b,f]azepine-5-propanamine]
[3]
  Comments: solubility: insoluble in the common organic solvents, but very soluble in water.

## CC1=CC(=O)N2CC(=O)N(C)c3ccc(Cl)cc3C2(c2ccccc2)O1 (stereo not drawn) [KETAZOLAM, 11-Chloro-8,12b-dihydro-2,8-dimethyl-12b-phenyl-4H-[1,3]oxazino[3,2-d][1,4]benzodiazepine-4,7(6H)-dione]
[3]
  Comments: solubility: Practically insoluble in water; slightly soluble in alcohol; freely soluble in chloroform

## [Li] [LITHIUM]
[3]; at 22 C.
  Solubility in water: water 0.1-0.5 g/100 mL

## O=C1Nc2ccc(Cl)cc2C(c2ccccc2Cl)=NC1O (stereo not drawn) [LOREZAPAM, 7-chloro-5-(0-chlorophenyl)-1,3-dihydro-3-hydroxy-2H-1,4-benzo-diazepin-2-one]
[3]
  Comments: solubility: Very soluble in organic solvents.

## Nc1nnc(-c2cccc(Cl)c2Cl)c(N)n1 [Lamictal]
[2]
  Human oral equivalent: 3.33 mg/kg

## CCC(=O)C(CC(C)N(C)C)(c1ccccc1)c1ccccc1 (stereo not drawn) [METHADONE, 1,1-Diphenyl-1-(2-dimethylaminopropyl)-2-butanone]
[3]
  Comments: solubility: Soluble in water; freely soluble in alcohol and in chloroform; practically insoluble in ether and in glycerol

## C=CCN1CC[C@]23c4c5ccc(O)c4O[C@H]2C(=O)CC[C@@]3(O)[C@H]1C5 [NALOXONE, (−)-17-Allyl-4, 5α-epoxy-3,14-dihydroxymorphinan-6-one hydrochloride]
[3]
  Comments: solubility: freely soluble in USP alcohol and very soluble in water

## CCc1nn(CCCN2CCN(c3cccc(Cl)c3)CC2)c(=O)n1CCOc1ccccc1 [NEFAZODONE, 2-(3-(4-(3-chlorophenyl)-1-piperazinyl)propyl)-5-ethyl-2,4-dihydro-4-(2-phenoxyethyl)-3H-1,2,4-triazol-3-one]
[3]; at 25 C.
  Solubility in water: Soluble in water <0.1 g/100 mL at 25 C.

## O=C1CN=C(c2ccccc2)c2cc([N+](=O)[O-])ccc2N1 [NITRAZEPAM, 1,3-Dihydro-7-nitro-5-phenyl-2H-1,4-benzodiazepin-2-one]
[3]
  Comments: solubility: Soluble 1 in 12 of water, 1 in 14 of alcohol, and 1 in 3.5 of chloroform; insoluble in ether; freely soluble in methyl alcohol

## NC(=O)N1c2ccccc2CC(=O)c2ccccc21 [OXCARBAZEPINE, 10,11-Dihydro-10-oxo-5H-dibenz[b,f]azepine-5-carboxamide]
[3]
  Comments: solubility: Freely soluble in water, in alcohol, and in dichloromethane

## O=C1NC(=O)C(c2ccccc2)(c2ccccc2)N1 [PHENYTOIN, 5,5-diphenyl-2,4-imidazolidinedione]
[5]
  alleviation of seizures: efficacious therapeutic alleviation of seizures
[3]
  Comments: solubility: Very soluble in water

## COc1cc2nc(N3CCN(C(=O)c4ccco4)CC3)nc(N)c2cc1OC.Cl [PRAZOSIN, 2-[4-(2-Furoyl)piperazin-1-yl]-6,7 dimethoxyquinazolin-4-ylamine hydrochloride]
[3]
  Solubility in water: very slightly soluble in water (<1 mg/ml) and readily soluble in organic solvents such as ethanol and acetone
  Comments: solubility: very slightly soluble in water (<1 mg/ml) and readily soluble in organic solvents such as ethanol and acetone

## CC(C)NCC(O)COc1cccc2ccccc12.Cl (stereo not drawn) [PROPRANOLOL, 1-(Isopropylamino)-3-(1-naphthyloxy)-2-propanol hydrochloride]
[3]
  Comments: solubility: soluble in methanol or ethanol but which has no appreciable solubility in water at physiological pH

## NNCCc1ccccc1 [Phenelzine, 2-Phenylethylhydrazine]
[1]; effective daily dose
  Rodent ICV dose: 1.8 mg/kg
[1]; elevated plus maze and open field conflicts test
  efficacy following ICV administration: efficacy
[1]; rat, in vivo
  Efficacy: anxiety reduction
[1]
  % of Oral dose: 120%
[2]
  Human oral equivalent: 1.5 mg/kg

## OCCOCCN1CCN(C2=Nc3ccccc3Sc3ccccc32)CC1 [Quetiapine]
[4]
  alleviation of psychotic symptoms: efficacious therapeutic alleviation of psychotic symptoms

## O=C(O)c1ccccc1O [SALICYLIC ACID, 2-Hydroxybenzoic acid]
[3]
  Comments: solubility: almost insoluble in water

## CN1CCN(CC/C=C2/c3ccccc3Sc3ccc(S(=O)(=O)N(C)C)cc32)CC1 [THIOTHIXINE, cis isomer of N,N-dimethyl-9-[…]3-(4-methyl-1-piperazinyl)-propylidene[…] thioxanthene-2-sulfonamide.]
[3]
  Comments: solubility: Slightly soluble in water; soluble in alcohol and in methyl alcohol

## Cl.O=c1n(CCCN2CCN(c3cccc(Cl)c3)CC2)nc2ccccn12 [TRAZODONE]
[3]; at 20 C.
  Solubility in water: insoluble in water <0.1 g/100 mL at 20 C.

## Cc1nnc2n1-c1ccc(Cl)cc1C(c1ccccc1Cl)=NC2 [TRIAZOLAM, 8-chloro-6-(o-chlorophenyl)-1-methyl-4H-s-triazolo-(4,3-alpha)(1,4) benzodiazepine]
[3]
  Comments: solubility: practically insoluble in water and soluble in alcohol and in acetone

## NC(=O)N1c2ccccc2C=Cc2ccccc21 [Tegretol, 5H-dibenz[b,f]azepine-5-carboxamide]
[5]
  alleviation of seizures: efficacious therapeutic alleviation of seizures
[3]
  Comments: solubility: Slightly soluble in water and in alcohol
[6]
  % Change: 60%
  Rodent ICV dose: 0.00888 mg/kg
  Efficacy: effective in blocking
  % of Oral dose: 0.13%
[2]
  Human oral equivalent: 6.66 mg/kg

## CCCC(CCC)C(=O)O [Valproate, 2-Propylpentanoic acid]
[2]
  Human oral equivalent: 1 mg/kg

## Cc1nccn1CC1CCc2c(c3ccccc3n2C)C1=O (stereo not drawn) [ondansetron]
[7]
  TC ratio: significantly reduced TC ratios

## (−)-trans-4R-(4′- fluorophenyl)-3S-((3′,4′- methylenedioxyphenoxy) methyl)piperidine [PAROXETINE]
[3]
  Comments: solubility: soluble in alcohol and poorly soluble in water

## cyclodextrin
[8]
  toxicity of cyclodextrin alone: no toxicity
